Measurements: patent US12025612B2, “Brown adipocyte progenitors in human skeletal muscle” (Energesis Pharmaceuticals, Inc., priority 2008, dated 2024)

Assays:
[1] = test system: UCP1 mRNA expression in fetal muscle CD34+ cells; test: UCP1 mRNA expression in cultured fetal muscle CD34+ cells, quantitative RT-PCR normalized to cyclophilin A; type: cell-based, human; conditions: rosiglitazone 1 μM
Procedure: UCP1 mRNA expression in fetal muscle CD34+ cells could be modulated by drug treatment. Cell-permeating cAMP derivatives strongly stimulated (7 to 8-fold) UCP1 mRNA expression in both primary cultured and expanded cells. The effects of cAMP derivatives, 8-bromo-cAMP, 0.25 mM or (4-chlorophenylthio)-cAMP, 0.25 mM (cAMP) on UCP1 mRNA expression in CD34+ cells in primary culture (PC) or expanded up to passage 3 (P3) are shown in FIG. 3B. All the cells were grown for 4-6 days in EGM2 medium and then placed for 8-12 days in the adipogenic medium described under Materials and Methods. The results are means±s.e.m. of arbitrary values normalized using the corresponding cyclophilin A values. They are expressed in % of their respective untreated (control) values considered as 100% (*p<0.05, n=3-6).
Rosiglitazone, a PPARγ agonist, had no effect in primary culture cells but strongly stimulated (8-fold) UCP1 mRNA expression in expanded cells. The results are expressed as in FIG. 3B (**p<0.01, n=4-7). […]
Total cell RNA was prepared using the kit NucleoSpin® RNAII (Clontech, Palo Alto, Calif.) or Extract-all solution (Eurobio, Courtaboeuf, France) and quantified by Biophotometry (Biophotometer, Eppendor). […] Quantitative real-time PCR was performed using ABI rapid thermal cycler system, and a SYBR Green PCR master mix (Applied Biosystems, Foster City, Calif.). […]

[2] = test system: UCP1 mRNA expression in human skeletal muscle; test: UCP1 mRNA expression in vastus lateralis muscle biopsies of obese type 2 diabetic patients before and after rosiglitazone, quantitative RT-PCR; type: in vivo; conditions: for UCP1 mRNA level after treatment (Rosi), normalized to cyclophilin A: after 8 weeks
Procedure: Since the PPARγ agonist rosiglitazone was a strong inducer of UCP1 mRNA expression in muscle CD34+ cells in culture, the effect of this compound in vivo in humans was investigated. Vastus lateralis muscle biopsies from 7 obese patients with type 2 diabetes mellitus treated for the management of their metabolic syndrome with rosiglitazone were used. The biopsies were obtained before and after 8 weeks of treatment with rosiglitazone (2×4 mg per day). […] In that study rosiglitazone, concomitantly with the improvement in insulin sensitivity, increased the level of expression of UCP1 in muscle by about 1.6-fold. […] The results are the means±s.e.m. of arbitrary values normalized using the corresponding cyclophilin A values (n=7, *p<0.05 vs. control).
In FIG. 5, showing UCP1 mRNA levels in skeletal muscle biopsies from a patient group (n=7), “control” corresponds to levels before treatment, and “Rosi” corresponds to levels after treatment (8 weeks) with rosiglitazone. Being a longitudinal study the effect of rosiglitazone on UCP1 levels in each individual (comparison of individual values for the “control”-before and “Rosi”-after conditions) were determined. Starting with 25 ng cDNA (produced by reverse transcription of RNA) the threshold of detection (Ct) during real-time PCR was about 22 for UCP1 and about 18 for cyclophilin.
Human fetal tissues were obtained anonymously, following spontaneous, voluntary or therapeutic terminations of pregnancy, from Magee Women Hospital, University of Pittsburgh, in compliance with the Institutional Review Board protocol. Developmental age (16 to 24 weeks of gestation) was estimated by measuring foot length. Informed consent to the use of fetal tissues was obtained from the patients in all instances. Adult human discarded abdominal subcutaneous WAT, originating from 45-55 year old patients undergoing plastic surgery performed one year after gastric bypass, was kindly provided by Dr Peter Rubin (Division of Plastic Surgery, University of Pittsburgh). The adult skeletal muscle tissue used for cell sorting was obtained post mortem from 50-78 year-old donors. The adult skeletal muscle used for the first group of RT-PCR studies was obtained from the rectus abdominus during surgery for either lap banding, inguinal hernia or hysterectomy of 10 lean male and female subjects. All subjects agreed to donate muscle samples during their operations and the protocol was approved by the Medical Ethical Review Committee of Deakin University. The average ages were 45±3 years and the average body mass index was 22.2±0.8. The adult skeletal muscle used for the second group of RT-PCR studies was obtained from the vastus lateralis of 7 obese type 2 diabetic male and female patients before and after 8 weeks of treatment with rosiglitazone (2×4 mg per day). The average age was 63±4 years and the average body mass index was […]. The complete clinical profile of the patients has been described in a previous publication. All subjects agreed to donate muscle samples, and the protocol was approved by the Medical Ethical Review Committee of Maastricht University.
Total cell RNA was prepared using the kit NucleoSpin® RNAII (Clontech, Palo Alto, Calif.) or Extract-all solution (Eurobio, Courtaboeuf, France) and quantified by Biophotometry (Biophotometer, Eppendor). Oligo-dT primed First strand cDNA were synthesized using the Superscript™ II RNase H Reverse Transcription kit (Invitrogen, Carlsbad, Calif.) and oligo-dT primers or the High Capacity cDNA Reverse Transcription kit (Applied Biosystems, Foster City, Calif.) and random primers. Quantitative real-time PCR was performed using ABI rapid thermal cycler system, and a SYBR Green PCR master mix (Applied Biosystems, Foster City, Calif.). Cyclophilin A was used as a control to account for any variations due to the efficiency of the reverse transcription. […]

For CN(CCOc1ccc(CC2SC(=O)NC2=O)cc1)c1ccccn1 (centres unmarked) [rosiglitazone], the “stimulation of UCP1 mRNA expression” value ([1]; CD34+ cells expanded up to passage 3 (P3)) was 8 fold, the “effect on UCP1 mRNA expression” value ([1]; CD34+ cells in primary culture (PC)) was “no effect” and the “increase of the level of expression of UCP1 in muscle” value ([2]; 7 obese type 2 diabetic patients, 8 weeks, 2×4 mg per day, after vs before treatment, mean) was “about 1.6 fold”. For the same compound, the “UCP1 level at end of treatment in % of before treatment” value (“UCP1 level … in % of before treatment” below) ([2]; Patient 1, 8 weeks) was 150%, the “UCP1 level increase, end of treatment vs. before” value (“UCP1 level increase, end” for short) ([2]; Patient 1, 8 weeks) was 50% and the “UCP1 mRNA level after treatment (Rosi), normalized to cyclophilin A” value (from here on “UCP1 mRNA level … normalized to cyclophilin A”) ([2]; Patient 1) was 652 arbitrary units. The “UCP1 level … in % of before treatment” value ([2]; Patient 2, 8 weeks) was 100%, the “UCP1 mRNA level … normalized to cyclophilin A” value ([2]; Patient 2) was 453 arbitrary units and the “UCP1 level … in % of before treatment” value ([2]; Patient 3, 8 weeks) was 180%. For the same compound, the “UCP1 level increase, end” value ([2]; Patient 3, 8 weeks) was 80%, the “UCP1 mRNA level … normalized to cyclophilin A” value ([2]; Patient 3) was 677 arbitrary units and the “UCP1 level … in % of before treatment” value ([2]; Patient 4, 8 weeks) was 280%. For the same compound, the “UCP1 level increase, end” value ([2]; Patient 4, 8 weeks) was 180%, the “UCP1 mRNA level … normalized to cyclophilin A” value ([2]; Patient 4) was 730 arbitrary units and the “UCP1 level … in % of before treatment” value ([2]; Patient 5, 8 weeks) was 108%. The “UCP1 level increase, end” value ([2]; Patient 5, 8 weeks) was 8%, the “UCP1 mRNA level … normalized to cyclophilin A” value ([2]; Patient 5) was 600 arbitrary units and the “UCP1 level … in % of before treatment” value ([2]; Patient 6, 8 weeks) was 410%. The “UCP1 level increase, end” value ([2]; Patient 6, 8 weeks) was 310%, the “UCP1 mRNA level … normalized to cyclophilin A” value ([2]; Patient 6) was 556 arbitrary units and the “UCP1 level … in % of before treatment” value ([2]; Patient 7, 8 weeks) was 110%. For the same compound, the “UCP1 level increase, end” value ([2]; Patient 7, 8 weeks) was 10% and the “UCP1 mRNA level … normalized to cyclophilin A” value ([2]; Patient 7) was 142 arbitrary units.
